# From PubChem BioAssay (NCI)
#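 Cultured in 96-well plates, cells were exposed to test compound for 48 hours across five concentrations. The concentration for 50% growth inhibition is given as GI50. The concentration for full growth arrest is given as TGI.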
# Assays:
# Experiment in all cases: NCI tumour cell line growth inhibition, 48 h
# RXF 393 renal = test system: RXF 393 renal
# NCI-H226 lung = test system: NCI-H226 lung
# TK-10 renal = test system: TK-10 renal
# NCI-H460 lung = test system: NCI-H460 lung
# SK-MEL-2 melanoma = test system: SK-MEL-2 melanoma
# NCI-H23 lung = test system: NCI-H23 lung
# SNB-19 CNS = test system: SNB-19 CNS
# BT-549 breast = test system: BT-549 breast
# PC-3 prostate = test system: PC-3 prostate
# OVCAR-4 ovarian = test system: OVCAR-4 ovarian
# HT29 colon = test system: HT29 colon
# SK-OV-3 ovarian = test system: SK-OV-3 ovarian
# HS 578T breast = test system: HS 578T breast
# HCT-116 colon = test system: HCT-116 colon
# UACC-62 melanoma = test system: UACC-62 melanoma
# IGROV1 ovarian = test system: IGROV1 ovarian
# NCI/ADR-RES ovarian = test system: NCI/ADR-RES ovarian
# OVCAR-5 ovarian = test system: OVCAR-5 ovarian
# UACC-257 melanoma = test system: UACC-257 melanoma
# HOP-62 NSCLC = test system: HOP-62 NSCLC
# 786-0 renal = test system: 786-0 renal
# A498 renal = test system: A498 renal
# MCF7 breast = test system: MCF7 breast
# MDA-MB-231 breast = test system: MDA-MB-231 breast
# SF-539 CNS = test system: SF-539 CNS
# T-47D breast = test system: T-47D breast
# ACHN renal = test system: ACHN renal
# MALME-3M melanoma = test system: MALME-3M melanoma
# MDA-MB-435 = test system: MDA-MB-435
# A549 NSCLC = test system: A549 NSCLC
# SK-MEL-28 melanoma = test system: SK-MEL-28 melanoma
# OVCAR-3 ovarian = test system: OVCAR-3 ovarian
# HOP-92 NSCLC = test system: HOP-92 NSCLC
# U251 CNS = test system: U251 CNS
# HCT-15 colon = test system: HCT-15 colon
# NCI-H522 lung = test system: NCI-H522 lung
# HCC-2998 colon = test system: HCC-2998 colon
# SF-268 CNS = test system: SF-268 CNS
# DU-145 prostate = test system: DU-145 prostate
# SN12C renal = test system: SN12C renal
# OVCAR-8 ovarian = test system: OVCAR-8 ovarian
# MOLT-4 leukemia = test system: MOLT-4 leukemia
# K-562 leukemia = test system: K-562 leukemia
# CAKI-1 renal = test system: CAKI-1 renal
# UO-31 renal = test system: UO-31 renal
# SF-295 CNS = test system: SF-295 CNS
# SW-620 colon = test system: SW-620 colon
# EKVX NSCLC = test system: EKVX NSCLC
# CCRF-CEM leukemia = test system: CCRF-CEM leukemia
# HL-60(TB) leukemia = test system: HL-60(TB) leukemia
# RPMI-8226 leukemia = test system: RPMI-8226 leukemia
# COLO 205 colon = test system: COLO 205 colon
# SR leukemia = test system: SR leukemia
smiles,measurement,setting,value
C=C1c2c(C)nn(-c3ccccc3)c2N(C)C23C[C@@H]1C1(C)c4c(C)nn(-c5ccccc5)c4N(C)C(C)(C[C@H]12)C3 (stereo partly drawn),GI50,RXF 393 renal,2.04 µM
same,TGI,RXF 393 renal,6.39 µM
same,GI50,NCI-H226 lung,15.3 µM
same,TGI,NCI-H226 lung,> 100 µM
same,GI50,TK-10 renal,4.77 µM
same,TGI,TK-10 renal,24.5 µM
same,GI50,NCI-H460 lung,3.35 µM
same,TGI,NCI-H460 lung,> 100 µM
same,GI50,SK-MEL-2 melanoma,6.78 µM
same,TGI,SK-MEL-2 melanoma,22 µM
same,GI50,NCI-H23 lung,7.99 µM
same,TGI,NCI-H23 lung,> 100 µM
same,GI50,SNB-19 CNS,11 µM
same,TGI,SNB-19 CNS,79.6 µM
same,GI50,BT-549 breast,5.55 µM
same,TGI,BT-549 breast,> 100 µM
same,GI50,PC-3 prostate,0.979 µM
same,TGI,PC-3 prostate,> 100 µM
same,GI50,OVCAR-4 ovarian,4.49 µM
same,TGI,OVCAR-4 ovarian,> 100 µM
same,GI50,HT29 colon,3.59 µM
same,TGI,HT29 colon,> 100 µM
same,GI50,SK-OV-3 ovarian,4.64 µM
same,TGI,SK-OV-3 ovarian,21.8 µM
same,GI50,HS 578T breast,5.67 µM
same,TGI,HS 578T breast,80.1 µM
same,GI50,HCT-116 colon,3.72 µM
same,TGI,HCT-116 colon,> 100 µM
same,GI50,UACC-62 melanoma,4.38 µM
same,TGI,UACC-62 melanoma,> 100 µM
same,GI50,IGROV1 ovarian,11.9 µM
same,TGI,IGROV1 ovarian,> 100 µM
same,GI50,NCI/ADR-RES ovarian,6.04 µM
same,TGI,NCI/ADR-RES ovarian,> 100 µM
same,GI50,OVCAR-5 ovarian,> 100 µM
same,TGI,OVCAR-5 ovarian,> 100 µM
same,GI50,UACC-257 melanoma,2.87 µM
same,TGI,UACC-257 melanoma,> 100 µM
same,GI50,HOP-62 NSCLC,7.15 µM
same,TGI,HOP-62 NSCLC,25.9 µM
same,GI50,786-0 renal,11.8 µM
same,TGI,786-0 renal,69.4 µM
same,GI50,A498 renal,4.28 µM
same,TGI,A498 renal,45.9 µM
same,GI50,MCF7 breast,2.99 µM
same,TGI,MCF7 breast,> 100 µM
same,GI50,MDA-MB-231 breast,4.55 µM
same,TGI,MDA-MB-231 breast,39.6 µM
same,GI50,SF-539 CNS,26.7 µM
same,TGI,SF-539 CNS,> 100 µM
same,GI50,T-47D breast,2.13 µM
same,TGI,T-47D breast,> 100 µM
same,GI50,ACHN renal,4.78 µM
same,TGI,ACHN renal,> 100 µM
same,GI50,MALME-3M melanoma,4.19 µM
same,TGI,MALME-3M melanoma,93.5 µM
same,GI50,MDA-MB-435,4.12 µM
same,TGI,MDA-MB-435,> 100 µM
same,GI50,A549 NSCLC,2.37 µM
same,TGI,A549 NSCLC,> 100 µM
same,GI50,SK-MEL-28 melanoma,22.6 µM
same,TGI,SK-MEL-28 melanoma,> 100 µM
same,GI50,OVCAR-3 ovarian,4.58 µM
same,TGI,OVCAR-3 ovarian,> 100 µM
same,GI50,HOP-92 NSCLC,0.549 µM
same,TGI,HOP-92 NSCLC,5.53 µM
same,GI50,U251 CNS,4.44 µM
same,TGI,U251 CNS,31.6 µM
same,GI50,HCT-15 colon,3.67 µM
same,TGI,HCT-15 colon,> 100 µM
same,GI50,NCI-H522 lung,2.12 µM
same,TGI,NCI-H522 lung,7.73 µM
same,GI50,HCC-2998 colon,6.21 µM
same,TGI,HCC-2998 colon,> 100 µM
same,GI50,SF-268 CNS,7.52 µM
same,TGI,SF-268 CNS,> 100 µM
same,GI50,DU-145 prostate,8.7 µM
same,TGI,DU-145 prostate,> 100 µM
same,GI50,SN12C renal,9.92 µM
same,TGI,SN12C renal,> 100 µM
same,GI50,OVCAR-8 ovarian,5.41 µM
same,TGI,OVCAR-8 ovarian,> 100 µM
COC12OC3(C4OC41)C(C(=O)O[C@H]3CO[Si](C)(C)C(C)(C)C)C2S(=O)(=O)c1ccccc1 (stereo partly drawn),TGI,MOLT-4 leukemia,3.53 µM
same,TGI,NCI-H226 lung,> 100 µM
same,TGI,TK-10 renal,> 100 µM
same,TGI,K-562 leukemia,5.03 µM
same,TGI,NCI-H460 lung,> 100 µM
same,TGI,SK-MEL-2 melanoma,> 5.33 µM
same,TGI,NCI-H23 lung,> 100 µM
same,TGI,BT-549 breast,> 100 µM
same,TGI,PC-3 prostate,> 90.2 µM
same,TGI,CAKI-1 renal,3.33 µM
same,TGI,SK-OV-3 ovarian,> 30.4 µM
same,TGI,UO-31 renal,> 5.18 µM
same,TGI,HS 578T breast,> 100 µM
same,TGI,HCT-116 colon,> 7.06 µM
same,TGI,UACC-62 melanoma,> 7.52 µM
same,TGI,NCI/ADR-RES ovarian,> 100 µM
same,TGI,SF-295 CNS,> 100 µM
same,TGI,OVCAR-5 ovarian,> 12.2 µM
same,TGI,SW-620 colon,> 31.6 µM
same,TGI,EKVX NSCLC,> 5.18 µM
same,TGI,UACC-257 melanoma,> 12.6 µM
same,TGI,HOP-62 NSCLC,> 5.97 µM
same,TGI,786-0 renal,> 7.71 µM
same,TGI,MCF7 breast,> 100 µM
same,TGI,MDA-MB-231 breast,> 7.32 µM
same,TGI,SF-539 CNS,> 100 µM
same,TGI,T-47D breast,> 100 µM
same,TGI,CCRF-CEM leukemia,4.04 µM
same,TGI,ACHN renal,> 83.9 µM
same,TGI,MALME-3M melanoma,> 85.1 µM
same,TGI,MDA-MB-435,> 5.11 µM
same,TGI,HL-60(TB) leukemia,7.66 µM
same,TGI,A549 NSCLC,> 100 µM
same,TGI,SK-MEL-28 melanoma,> 5.53 µM
same,TGI,OVCAR-3 ovarian,> 100 µM
same,TGI,HOP-92 NSCLC,> 100 µM
same,TGI,U251 CNS,> 7.83 µM
same,TGI,HCT-15 colon,> 100 µM
same,TGI,NCI-H522 lung,50.4 µM
same,TGI,HCC-2998 colon,> 100 µM
same,TGI,RPMI-8226 leukemia,11.7 µM
same,TGI,COLO 205 colon,47.3 µM
same,TGI,SR leukemia,> 100 µM
same,TGI,DU-145 prostate,> 6.06 µM
same,TGI,SN12C renal,> 9.26 µM
same,TGI,OVCAR-8 ovarian,> 100 µM
